Measurements published in PubChem BioAssay (NCI).
Values joined by “and” are separate entries in the source; they are usually repeats but may differ in a detail not shown here. Identical values can stand only once.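 The compound was tested at five concentrations on cells cultured in 96-well plates, with a 48-hour exposure period. The concentration for 50% growth inhibition is given as GI50. The concentration for full growth arrest is given as TGI.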

Tests used:
Test in all cases: NCI anticancer screen, dose series, 48 h
786-0 renal = system: 786-0 renal
DU-145 prostate = system: DU-145 prostate
HCT-116 colon = system: HCT-116 colon
HL-60(TB) leukemia = system: HL-60(TB) leukemia
K-562 leukemia = system: K-562 leukemia
M14 melanoma = system: M14 melanoma
RPMI-8226 leukemia = system: RPMI-8226 leukemia
SR leukemia = system: SR leukemia
T-47D breast = system: T-47D breast
TK-10 renal = system: TK-10 renal

| Compound | TGI (786-0 renal) | TGI (DU-145 prostate) | TGI (HCT-116 colon) | TGI (HL-60(TB) leukemia) [µM] | TGI (K-562 leukemia) [µM] | TGI (M14 melanoma) | TGI (RPMI-8226 leukemia) | TGI (SR leukemia) | TGI (T-47D breast) | TGI (TK-10 renal) | GI50 (786-0 renal) [µM] | GI50 (DU-145 prostate) [µM] | GI50 (HCT-116 colon) [µM] | GI50 (HL-60(TB) leukemia) [µM] | GI50 (K-562 leukemia) [µM] | GI50 (M14 melanoma) [µM] | GI50 (RPMI-8226 leukemia) [µM] | GI50 (SR leukemia) [µM] | GI50 (T-47D breast) [µM] | GI50 (TK-10 renal) [µM] |
| --- | --- | --- | --- | --- | --- | --- | --- | --- | --- | --- | --- | --- | --- | --- | --- | --- | --- | --- | --- | --- |
| Cc1cccc2c(N=Nc3ccccc3[N+](=O)[O-])c(O)[nH]c12 | 11.8 µM | > 100 µM | 34 µM | > 100 | > 100 | > 100 µM | > 89.3 µM | 38.7 µM | 21.9 µM | 16.9 µM |  |  |  |  |  |  |  |  |  |  |
| CC(=O)Oc1ccccc1C(=O)NCCC[Se]C#N | 4.38 µM | 3.17 µM | 5.03 µM | 5.49 | 21.1 | 5.38 µM | 6.04 µM | 9.4 µM | 17.8 µM | 3.82 µM | 2.1 | 1.72 | 1.87 | 2.09 | 3.46 | 1.82 | 2.41 | 2.02 | 3.19 | 1.83 |
| CC1=C/C(O)CC(=O)Cc2nc(co2)C(=O)N2CCC=C2C(=O)OC(C(C)C)C(C)/C=C\C(=O)NC/C=C\1 (stereo not drawn) | 90.1 µM and 60.8 µM | 45.2 µM and > 100 µM | 14.8 µM and 28.1 µM | > 100 | > 100 | > 100 µM and 42.3 µM | > 100 µM and 43.4 µM | > 100 µM and 44.6 µM | > 48.5 µM and 36.8 µM | > 100 µM and 96.1 µM | 26.2 | 18.5 | 3.63 | 14.5 | > 59.5 | 23 | 7.98 | > 100 | 8.3 | > 100 |
| OCc1ncc(-c2ccccc2)s1 | > 100 µM | > 100 µM | > 100 µM | > 100 | > 100 | > 100 µM | > 100 µM | > 100 µM | > 100 µM | > 100 µM | > 100 | > 100 | > 100 | > 100 | > 100 | > 100 | > 100 | > 100 | > 100 | > 100 |
| COc1ccc(C2CC(c3cccc(OC)c3)=NN2C(=O)c2cc(OC)c(OC)c(OC)c2)cc1 (stereo not drawn) | > 100 µM | > 41.6 µM | > 100 µM |  | > 20.5 | > 29.3 µM | 4.35 µM | > 100 µM | > 100 µM | > 100 µM | 2.25 | 2.66 | 1.43 | 0.609 | 0.431 | 1.56 | 1.05 | 0.359 | 3.02 |  |
| NC(=S)N/N=C/c1ccc(OC(=O)COc2ccccc2)cn1 | > 100 µM | 8.96 µM | > 100 µM | > 100 | > 100 | 12.1 µM | > 100 µM | > 100 µM | > 100 µM | > 100 µM | 3.89 | 2.72 | 5.98 | 1.18 | 2.88 | 3.57 | 7.47 | 0.596 | 7.45 | > 100 |
| CC(=O)OC1CC2(O)C(CCC3(C)C(c4ccc(=O)oc4)CCC32O)C2(C)CCC(OC3OC(CO)C(O)C(O)C3O)C=C12 (stereo not drawn) | 0.03 µM | 0.0594 µM | 0.105 µM | 0.0579 | 0.175 | 0.129 µM | 0.162 µM | 0.0541 µM | 0.837 µM | 0.201 µM | 0.0129 | 0.0183 | 0.0111 | 0.0232 | 0.0295 | 0.0356 | 0.0309 | 0.015 | 0.0402 | 0.0226 |
| CC(C)C[C@H]1C(=O)N2CCC[C@H]2[C@]2(O)O[C@](NC(=O)[C@@H]3C=C4c5cccc6[nH]c(Br)c(c56)C[C@H]4N(C)C3)(C(C)C)C(=O)N12 | > 100 µM | > 100 µM | > 100 µM | 28.1 | > 100 | > 100 µM | > 100 µM | > 100 µM | > 100 µM | > 100 µM |  |  |  |  |  |  |  |  |  |  |
| COc1cc2oc(-c3cccc(C(=O)Nc4ccc(C)cc4)c3)cc(=O)c2c(OC)c1OC | 6.11 µM | > 100 µM | 21.8 µM | 4.59 | > 100 | 2.23 µM | 3.54 µM | 40.6 µM | > 100 µM | > 100 µM | 2.06 | 3.21 | 2.21 | 1.86 | 3.4 | 0.503 | 0.374 | 2.53 | 1.94 | 6.89 |
| C/C(=C1/N=C(c2ccccc2)OC1=O)c1ccccc1 | > 100 µM | > 100 µM | > 100 µM | > 100 | > 100 | > 100 µM | 68.4 µM | > 100 µM | > 100 µM | > 100 µM |  |  |  |  |  |  |  |  |  |  |
